{"source": "patent US11510928B2", "about": "“Use of mirtazapine in the treatment of inflammatory disorders, autoimmune disease and PBC” (UTI Limited Partnership, priority 2017, dated 2022)", "key": {"hepatic immune cells": {"test_system": "hepatic immune cells", "experiment": "Hepatic immune cell phenotyping by flow cytometry after mirtazapine treatment", "format": "in vivo, mouse", "description": "Male 8-10 week old C57BL/6 mice (Jackson Labs, Bar Harbor, Me.) were used. All procedures were approved by the University of Calgary Animal Care Committee (protocol numbers AC14-0129 and AC14-0128) and were performed in accordance with the guidelines of the Canadian Council on Animal Care. To delineate the impact of mirtazapine treatment upon liver immune cell numbers and phenotype, and upon cytokine/chemokine networks within the liver, mice were treated with mirtazapine 1-20 mg/kg intraperitoneally^13-15. Mirtazapine was suspended in 1% aqueous solution of Tween 80, whereas the control group received 1% aqueous solution of Tween 80. […] The detailed experimental protocols, lists of antibodies and reagents used, flow cytometry gating, and immune cell phenotyping strategies, are described herein. […] Isolated hepatic leukocytes were subjected to direct immunofluorescence analyses using multicolor flow cytometry staining as previously described. Samples were acquired either using a FACScan flow cytometer (Becton Dickinson, Mountain View, Calif.) or AttuneTM Acoustic Focusing flow cytometer (Applied Biosytems, […], Burlington, ON). Data were analyzed using FlowJo® software (Treestar, Ashland, Oreg.). Gating proceeded as follows: gating of live cells and exclusion of duplet cells followed by gating on forward scatter (FSC) and side scatter (SSC) areas to identify regions appropriate to define live leukocytes. Within the leukocyte gate, the following cell subsets were identified: Regulatory T cells (CD4^+CD25^+Foxp3^+), monocytes (CD11b^+Ly6C^+), dendritic cells (CD11b^+CD11c^+), B Cells (CD3^-IgM^+), B1a B cells (IgM^+CD5^+CD^11b^+), B1b B cells (IgM^+CD5^-CD11b^+), and B2 B cells as (IgM^+CD5^-CD11b^-). Fluorescence-minus-one (FMO) controls were used for the accurate designation of cells with fluorescence above background levels. Appropriate isotype controls were used to determine the specificity of all antibodies used. Cell numbers were calculated based on the percentage of cells found in the gate of interest, and total cell numbers isolated from each liver."}, "[1]": {"test_system": "antigen-induced arthritis (mBSA)", "experiment": "Antigen-induced arthritis (AIA) mouse model", "format": "in vivo", "details": "20 mg/kg, 24 hrs post-antigen challenge", "text": "The antigen-induced arthritis (AIA) mouse model is a well-characterized model that is extensively used to provide insights into the pathogenesis of RA. AIA is critically dependent on an early innate immune response (within 24 hrs post-induction) mediated by synovial TM's and neutrophils which drive subsequent adaptive immune responses and chronic joint inflammation. Proinflammatory cytokines (eg. TNFα, IL-17A and IL-1) and chemokines (eg. CXCL1, CXCL2) recruit neutrophils to the joint in this model. AIA is induced by the intradermal (tail base) injection of 500 μg methylated BSA (mBSA; Sigma) in 50 μl saline+complete Freund's adjuvant (CFA; Sigma) on day 0. 14 days later mice receive an antigen challenge with mBSA (10 μg/10 μl saline) injection into the left knee joint. At various time points after antigen challenge knee swelling is assessed using calipers, and the knee cavity exposed and inflammatory response and tissue injury assessed by immune cell analyses (cell phenotyping by FACS, using our published protocols), cytokine/chemokine expression (by Luminex® and qRT-PCR), and scoring of histological joint damage. Assessment of joint innate immune responses will occur at 24 and 48 hrs post-antigen challenge42. […] Hypernociception was measured before and 24 hrs post-antigen challenge using an automatic dynamic plantar algesiometer (Hugo Basile Inc)."}, "[2]": {"test_system": "hepatic cytokine and chemokine milieu", "experiment": "Hepatic and plasma cytokine/chemokine levels after mirtazapine treatment (Luminex, LEGENDplex)", "format": "in vivo, mouse", "description": "Male 8-10 week old C57BL/6 mice (Jackson Labs, Bar Harbor, Me.) were used. All procedures were approved by the University of Calgary Animal Care Committee (protocol numbers AC14-0129 and AC14-0128) and were performed in accordance with the guidelines of the Canadian Council on Animal Care. […] Mirtazapine was suspended in 1% aqueous solution of Tween 80, whereas the control group received 1% aqueous solution of Tween 80. Blood and liver samples were collected 5 hours post-mirtazapine treatment (or 16 hours post-Con A treatment). The detailed experimental protocols, lists of antibodies and reagents used, flow cytometry gating, and immune cell phenotyping strategies, are described herein. To delineate the effect of mirtazapine treatment on hepatic cytokine/chemokine expression a Luminex® assay was used using methods as previously described. […] A panel of mouse cytokines/chemokines were simultaneously measured in liver homogenate samples using a mouse MILLIPLEX kit (Millipore, USA) according to the manufacturer's protocol. The multiplexing analysis was performed using the Luminex 100 system (Luminex®, USA; Eve Technologies Corporation, Calgary, Canada). Total protein concentrations in liver homogenates were quantified using a BCA Protein Assay kit (Pierce, USA) according to manufacturers instructions. Results were expressed as pg of analyte per mg of protein. Additional plasma and hepatic measurements were made using a bead-based LEGENDplex immunoassay. Plasma and hepatic levels of CXCL10/IP-10 and CXCL9/Mig were measured using BioLegend's LEGENDplex™ bead-based immunoassays in a 96-well v-bottom microplate, according to the manufacturer's protocol. At the end of the assay, all samples were transferred from the plate to FACS tubes and read on a flow cytometer (Attune® Acoustic Focusing Cytometer). After data acquisition, flow cytometry standard (FCS) files were analyzed using Biolegend's LEGENDplex data analysis software to calculate the concentrations of individual chemokines, and results were expressed as pg of analyte per mg of protein. Alternatively, the flow cytometry standard (FCS) files were analyzed using FlowJo software (Treestar, San Carlos, Calif.)."}, "[3]": {"details": "20 mg/kg ip, 3 hrs post-treatment"}, "[4]": {"details": "pilot study, 4 hrs post-treatment, 20 mg/kg (FIG. 13)"}}, "data": [{"smiles": "CN1CCN2c3ncccc3Cc3ccccc3C2C1", "note": "(stereo not drawn) [Mirtazapine]", "values": [{"measurement": "Cellular expression levels of FOXP3 in hepatic Tregs (MFI)", "setting": "hepatic immune cells; [3]", "value": "enhanced cellular expression levels of FOXP3"}, {"measurement": "Hepatic CD11b+CD11c+ dendritic cells as % of total CD11b+ cells", "setting": "hepatic immune cells; [3]", "value": "relatively enriched"}, {"measurement": "Numbers of Tregs (CD4+CD25+FOXP3+) within the liver", "setting": "hepatic immune cells; [3]", "value": "significantly increased numbers of Tregs"}, {"measurement": "Hepatic numbers of CD73 expressing T cells (CD3+CD73+)", "setting": "hepatic immune cells; 5 hr (FIG. 11)", "value": "increases hepatic numbers of CD73 expressing T cells"}, {"measurement": "CXCR3+CD73+ B1a cells in the liver", "setting": "hepatic immune cells; 5 hrs post-treatment", "value": "significantly increased recruitment"}, {"measurement": "Expression intensity of FOXP3 per cell (MFI)", "setting": "hepatic immune cells; 5 hrs post-treatment", "value": "significantly increased"}, {"measurement": "Hepatic B1a cells", "setting": "hepatic immune cells; 5 hrs post-treatment", "value": "significant increase"}, {"measurement": "Hepatic B1b cells", "setting": "hepatic immune cells; 5 hrs post-treatment", "value": "remained unchanged"}, {"measurement": "Hepatic B2 cells", "setting": "hepatic immune cells; 5 hrs post-treatment", "value": "decrease"}, {"measurement": "Increase in hepatic numbers of CD4+CD25+FOXP3+ T cells (Tregs)", "setting": "hepatic immune cells; 5 hrs post-treatment", "value": "~2", "unit": "fold"}, {"measurement": "Reduction of hepatic LY6Chi monocyte population", "setting": "hepatic immune cells; 5 hrs post-treatment", "value": "~2.5", "unit": "fold"}, {"measurement": "Total hepatic leukocyte numbers (CD45+)", "setting": "hepatic immune cells; 5 hrs post-treatment", "value": "did not alter total overall hepatic leukocyte numbers"}, {"measurement": "Total numbers of hepatic monocytes (CD11b+LY6C+)", "setting": "hepatic immune cells; 5 hrs post-treatment", "value": "significant reduction"}, {"measurement": "Hepatic numbers of repair monocytes (CD11b+Ly6Clow)", "setting": "hepatic immune cells; 5 hrs post-treatment (FIG. 4H)", "value": "significantly reduces"}, {"measurement": "CXCL10 expression in hepatic monocytes and dendritic cells (MFI)", "setting": "hepatic immune cells; flow cytometry, vs vehicle", "value": "increased CXCL10 expression"}, {"measurement": "Hepatic CD11b+Ly6Chi (inflammatory) monocytes", "setting": "hepatic immune cells; pilot study, 20 mg/kg, 4 hrs", "value": "rapid striking reduction"}, {"measurement": "Hepatic CD11b+Ly6Clo (anti-inflammatory/repair) monocyte numbers", "setting": "hepatic immune cells; pilot study, 20 mg/kg, 4 hrs", "value": "no change"}, {"measurement": "AIA-induced hypernociception", "setting": "[1]", "value": "attenuates"}, {"measurement": "Joint total neutrophil recruitment", "setting": "[1]", "value": "reduces"}, {"measurement": "Synovial fluid CXCL1 levels", "setting": "[1]", "value": "but not CXCL1"}, {"measurement": "Synovial fluid IL-1α levels", "setting": "[1]", "value": "reduces"}, {"measurement": "Synovial fluid TNFα levels", "setting": "[1]", "value": "reduces"}, {"measurement": "Plasma levels of CXCL10/IP-10 and CXCL9/MIG vs vehicle", "setting": "[2]; 5 hours post-treatment", "value": "significantly increased"}, {"measurement": "Increase in hepatic CXCL9 level vs vehicle", "setting": "[2]; 5 hours post-treatment, ip", "value": "~7", "unit": "fold"}, {"measurement": "Increase in hepatic CXCL10 level vs vehicle", "setting": "[2]; 5 hours post-treatment, ip", "value": "~120", "unit": "fold"}, {"measurement": "Increase in hepatic GM-CSF level vs vehicle", "setting": "[2]; 5 hours post-treatment, ip", "value": "~1.5", "unit": "fold"}, {"measurement": "Increase in hepatic IFNγ level vs vehicle", "setting": "[2]; 5 hours post-treatment, ip", "value": "~8", "unit": "fold"}, {"measurement": "Increase in hepatic IL-1β level vs vehicle", "setting": "[2]; 5 hours post-treatment, ip", "value": "~1.5", "unit": "fold"}, {"measurement": "Increase in hepatic IL-4 level vs vehicle", "setting": "[2]; 5 hours post-treatment, ip", "value": "~30", "unit": "fold"}, {"measurement": "Increase in hepatic IL-5 level vs vehicle", "setting": "[2]; 5 hours post-treatment, ip", "value": "~2", "unit": "fold"}, {"measurement": "Increase in hepatic IL-6 level vs vehicle", "setting": "[2]; 5 hours post-treatment, ip", "value": "~1.5", "unit": "fold"}, {"measurement": "Increase in hepatic IL-12 level vs vehicle", "setting": "[2]; 5 hours post-treatment, ip", "value": "~1.5", "unit": "fold"}, {"measurement": "Increase in hepatic IL-12p40 level vs vehicle", "setting": "[2]; 5 hours post-treatment, ip", "value": "~1.5", "unit": "fold"}, {"measurement": "Increase in hepatic IL-12p70 level vs vehicle", "setting": "[2]; 5 hours post-treatment, ip", "value": "~1.5", "unit": "fold"}, {"measurement": "Increase in hepatic IL-15 level vs vehicle", "setting": "[2]; 5 hours post-treatment, ip", "value": "~1.5", "unit": "fold"}, {"measurement": "Increase in hepatic IL-17 level vs vehicle", "setting": "[2]; 5 hours post-treatment, ip", "value": "~1.5", "unit": "fold"}, {"measurement": "Increase in hepatic TNFα level vs vehicle", "setting": "[2]; 5 hours post-treatment, ip", "value": "~1.5", "unit": "fold"}, {"measurement": "Hepatic levels of IL-2, IL-10, IL-13, IL-7, IL-9, M-CSF, G-CSF, LIF, IL-3, CCL3/MIP-1α, CCL4/MIP-1β, CXCL2/MIP-2, CCL11/Eotaxin-1, CCL5/RANTES", "setting": "[2]; 5 hours post-treatment, data not shown", "value": "unaltered"}, {"measurement": "Hepatic levels of the chemokines CXCL10/IP-10 and CXCL9/MIG vs vehicle", "setting": "[2]; 5 hours post-treatment, in words", "value": "striking increases"}, {"measurement": "Hepatic levels of CCL2/MCP-1, CCL4/MIP-1β, CCL5/RANTES, CCL11/eotaxin-1, CCL3/MIP-1a", "setting": "[2]; after mirtazapine treatment", "value": "no significant changes"}, {"measurement": "Hepatic IL-10 levels", "setting": "[2]; [4]", "value": "unchanged"}, {"measurement": "Increase in hepatic IL-4 levels", "setting": "[2]; [4]", "value": 50, "unit": "fold"}]}]}
